{"source": "patent US20120142730A1", "about": "(priority 2010, published 2012)", "tested_on": "subjects with RRMS", "assay": "BRAVO phase III trial: laquinimod vs placebo and Interferon β-1a (Avonex) reference arm", "assay_type": "in vivo, human", "procedure": "A multinational, multicenter, randomized, parallel-group, clinical trial is performed in subjects with RRMS (“BRAVO”).\nInterferon β-1a (Avonex®) 30 mcg intramuscular injection once weekly (400 subjects).\nDuring the study, the following assessments are performed (regardless of the treatment assignment) at the specified time points: • 1. Vital signs (temperature, pulse, blood pressure) are measured at each study visit. • 2. A physical examination is performed at months −1 (screening), (baseline) 1, 3, 6, 12, 18 and 24 (termination/early discontinuation). • 3. The following safety clinical laboratory tests are performed: • a. Hematology and Complete blood count (CBC) with differential—at all scheduled visits. A reticulocyte count is added to the CBC at months 0 (baseline) and 24 (termination/early discontinuation) as well as in occasions of significant decrease in hemoglobin. • b. Serum chemistry (including electrolytes, liver enzymes, direct and total bilirubin, CPK and pancreatic amylase), and urinalysis—at all scheduled visits. • c. Serum TSH, T3 and Free T4 are measured at months 0 (baseline), 6, 12, 18 and 24 (termination/early discontinuation). • d. A rapid urine β-hCG test is performed in women of child-bearing potential at baseline (month 0; all subjects) and at each scheduled study visit thereafter (at site; only subjects assigned to oral treatment). • e. β-hCG in women of child-bearing potential are performed at each study visit. • f. Starting after visit Month 3 a rapid urine β-hCG test is performed in women of child-bearing potential (only those assigned to oral treatment) every 28 (±2) days. The subject is contacted by telephone with 72 hours after the test is scheduled to be performed and asked specific questions regarding the test. In case of suspected pregnancy (positive urine β-hCG test result), the caller makes sure that the study drug has been discontinued and the subject is instructed to arrive to the site as soon as possible with all study drugs. • 4. Markers of inflammation (serum conventional C-reactive protein and fibrinogen) are measured at all scheduled visits. • 5. […] These samples are collected at months 0, 12 and 24. • 6. […] In case of suspected thrombotic event, the subject is requested to arrive at the site immediately for further evaluation. […] ECG is performed at months −1 (screening; additional recording, up to 30 minutes apart are performed if QTc is >450 msec), 0 (baseline; three recordings, 15 minute apart), 1, 2, 3, 6, 12, 18 and 24 (termination/early discontinuation). • 8. Chest X-ray is performed at month −1 (screening) (if not performed within 6 months prior to screening visit). • 9. Adverse Events (AEs) are monitored throughout the study and recorded. • 10. Concomitant medications are monitored throughout the study. • 11. Neurological evaluations, including Neurostatus [Functional Systems (FS), Expanded Disability Status Scale (EDSS; Converted scale), Ambulation Index (AI)] and Timed-25 foot walk test are performed at months −1 (screening), 0 (baseline) and every 3 months thereafter, until termination/early discontinuation. (At screening visit, the Timed-25 foot walk test is performed 3 times, for practicing purposes, as a part of the MSFC). • 12. MS Functional Composite (MSFC) is assessed at months −1 (screening) (three practices for training purposes only), 0 (baseline), 6, 12, 18 and 24 (termination/early discontinuation). • 13. The general health status is assessed by the EuroQoL (EQ5D) questionnaire at months 0 (baseline) and 24 (termination/early discontinuation). • 14. The general health status and quality of life parameters are assessed by the Short-Form general health survey (SF-36) subject-reported questionnaire at month 0 (baseline) and every 6 months thereafter until termination/early discontinuation, inclusive. • 15. Subject-reported fatigue is assessed by the Modified Fatigue Impact Scale (MFIS) at months 0 (baseline), 2, 6, 12, 18 and 24 (termination/early discontinuation). • 16. […]", "key": {"[1]": {"conditions": "0.6 mg daily oral compared to weekly 30 mcg Interferon β-1a (Avonex)"}}}
{"smiles": "CCN(C(=O)c1c(O)c2c(Cl)cccc2n(C)c1=O)c1ccccc1", "note": "[Laquinimod, laquinimod]", "values": [{"measurement": "Accumulation of physical disability (MSFC score, time to confirmed progression of EDSS)", "setting": "0.6 mg daily oral", "result": "reduces the accumulation of physical disability"}, {"measurement": "Brain atrophy (percent brain volume change from baseline to end of treatment)", "setting": "0.6 mg daily oral", "result": "reduces brain atrophy"}, {"measurement": "Fatigue (MFIS)", "setting": "0.6 mg daily oral", "result": "reduces the fatigue"}, {"measurement": "General health status (SF-36)", "setting": "0.6 mg daily oral", "result": "improves the general health status"}, {"measurement": "Prevention or delay of relapses", "setting": "0.6 mg daily oral", "result": "prevents or delays relapses"}, {"measurement": "Quality of life (EuroQoL EQ5D)", "setting": "0.6 mg daily oral", "result": "improves the quality of life"}, {"measurement": "Severe relapses (requiring hospitalization or intravenous steroid treatment)", "setting": "0.6 mg daily oral", "result": "reduces the rate of severe relapses or the severity of relapses"}, {"measurement": "Adverse effects", "setting": "[1]", "result": "fewer adverse effects, less severe adverse effects"}, {"measurement": "Safety and tolerability profile", "setting": "[1]", "result": "favorable safety and tolerability profile"}, {"measurement": "Number of confirmed relapses", "setting": "0.6 mg daily oral, vs placebo and Avonex arm", "result": "reduces the number of confirmed relapses"}]}
